# Legend:
# [1] = Pharmacokinetic study in rat plasma after oral administration of Nauclea officinalis extracts (HPLC-MS/MS); assay type: in vivo, Male Sprague–Dawley (SD) rats; details: oral Nauclea officinalis extracts 2 g/kg, noncompartment model, mean ± SD; for Cmax / MRT last / Vd/F / half-life: male, Sprague-Dawley; for Cmax: n = 6, read-out: C max (maximum plasma concentration); for MRT last: n = 6, read-out: MRT (0 − t); for Vd/F: n = 6, read-out: Vz/F (apparent distribution volume); for half-life: n = 6, read-out: t1/2 (elimination half-life) (converted)
# Method: (§1) Chromatographic analysis was performed on the LC-20ADXR System (Shimadzu, Japan). The Phenomenex Kinete EVO C18 100 Å (50 mm × 2.1 mm, 5 μm) column was used as the analytical column maintained at 40°C with (A) 0.1% formic acid aqueous solution and (B) acetonitrile as the mobile phase. […] The flow rate was 0.8 mL/min, and the injection volume was 5 μL.
# (§2) Mass spectrometric detection was performed on an AB-SCIEX API 4000 mass spectrometer (AB SCIEX, Singapore) with ESI in negative ion multiple reaction monitoring (MRM) mode. The optimized instrument parameters were as follows: nebulizer gas: 50 psi, heated by N2 gas: 55 psi, ion spray voltage: −4500 V and temperature: 550°C; nebulizer, blowback gas, and collision gas were nitrogen; declustering potential (DP), collision energy (CE), and collision cell exit potential (CXP) of the four analytes and chloramphenicol (IS) are shown in Table 1.
# Six male SD rats were tested in pharmacokinetics studies. […] The blood samples (approximately 0.5 mL) were collected via the venous plexus of the eye socket at 0.083, 0.25, 0.5, 1, 2, 4, 6, 8, […], 12, and 24 h under anesthesia. Next, each sample was immediately centrifuged at 4000 rpm for 10 min to acquire the plasma. The plasma was transferred to new tubes and stored at −80°C until further use. The pharmacokinetics parameters of the four compounds in rat plasma were calculated by the noncompartment model using Drug and Statistics (DAS 3.3.0) software (Beijing, China).
# Pharmacokinetic parameters of four compounds were calculated by noncompartmental model using DAS 3.3.0 software.
# [2] = Tissue distribution in rats after oral administration of Nauclea officinalis extracts (HPLC-MS/MS); assay type: in vivo
# Method: as §1, §2
# Thirty rats were divided into five groups (n = 6) at random, which were orally administered Nauclea officinalis extracts at a dose of 2 g/kg for tissue distribution conducted at 0.5, 1, 2, 4, and 6 h. During the collection, the heart, liver, spleen, lung, kidney, stomach, small intestine, and brain were rinsed with physiological saline solution to get rid of the blood or content and blotted on filter paper and then weighed. Each tissue sample was accurately weighed and homogenized by using physiological saline at four times the tissue weight (w/v). The homogenates were stored at −80°C until analysis.
# Drugs enter tissues that receive high blood flow first, followed by those that receive low blood flow.
smiles,measurement,setting,value
O=C(/C=C/c1ccc(O)c(O)c1)O[C@@H]1C[C@](O)(C(=O)O)C[C@@H](O)[C@H]1O [Chlorogenic acid],Cmax,[1],242 ± 84.7 ng/mL
same,MRT last,[1],5.33 ± 0.65 h
same,Vd/F,[1],916 ± 452 L/kg
same,half-life,[1],10.6 ± 6.21 h
same,AUC (0 − ∞),[1]; n = 6,554.37 ± 166.14 μg/L∗h
same,CL (clearance rate),[1]; n = 6,1049 ± 266.7 mL/min/kg
same,CL (clearance rate),"[1]; n = 6, listed as chlorogenic acid",1049 ± 266.6 mL/min/kg
same,Peak concentration in most tissues versus plasma,[2]; after oral extract 2 g/kg,much lower than in plasma
C/C=C1/COC(=O)[C@H]2C(=O)N3CCc4c([nH]c5ccccc45)[C@@H]3C[C@@H]12 [Naucleactonin C],Cmax,[1],1010 ± 369 ng/mL
same,MRT last,[1],4.76 ± 1.57 h
same,Vd/F,[1],0.966 ± 0.359 L/kg
same,half-life,[1],4.59 ± 1.65 h
same,AUC (0 − t),[1]; n = 6,5281.36 ± 440.02 μg/L∗h
same,AUC (0 − ∞),[1]; n = 6,5405.02 ± 416.99 μg/L∗h
same,CL (clearance rate),[1]; n = 6,2.5 ± 0.17 mL/min/kg
same,T max (time to Cmax),[1]; n = 6,1.66 h
same,Abundance in small intestine versus stomach,[2]; after oral extract 2 g/kg,more abundant in the small intestine than in the stomach
same,Detection in studied tissues,"[2]; heart, liver, spleen, lung, kidney, small intestine, stomach, brain, 0.5-6 h after oral extract 2 g/kg",could be detected in all studied tissue
